The IC50 is the concentration needed to halve the response being measured.

The values below come from patent US20250213555A1, “SUBSTITUTED TETRAHYDROFURAN ANALOGS AS MODULATORS OF SODIUM CHANNELS” (VERTEX PHARMACEUTICALS INCORPORATED, priority 2021, published 2025).

human Nav 1.8, sequence (Q9Y5Y9 126-399 limits assumed): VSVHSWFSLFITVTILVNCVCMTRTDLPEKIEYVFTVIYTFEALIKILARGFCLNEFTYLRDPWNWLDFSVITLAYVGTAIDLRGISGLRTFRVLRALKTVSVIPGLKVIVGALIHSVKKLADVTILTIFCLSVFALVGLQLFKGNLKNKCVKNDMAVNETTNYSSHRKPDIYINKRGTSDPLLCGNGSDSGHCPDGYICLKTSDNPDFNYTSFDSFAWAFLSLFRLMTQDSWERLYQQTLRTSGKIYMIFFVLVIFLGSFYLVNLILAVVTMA
human Nav 1.8, sequence (Q9Y5Y9 660-890 limits assumed): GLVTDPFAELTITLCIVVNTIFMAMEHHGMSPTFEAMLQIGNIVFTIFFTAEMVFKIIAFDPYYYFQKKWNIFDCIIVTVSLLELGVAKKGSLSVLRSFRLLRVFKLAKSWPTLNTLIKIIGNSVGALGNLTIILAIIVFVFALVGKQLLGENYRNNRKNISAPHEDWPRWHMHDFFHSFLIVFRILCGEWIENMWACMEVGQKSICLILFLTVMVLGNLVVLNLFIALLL
human Nav 1.8, sequence (Q9Y5Y9 1148-1722 limits assumed): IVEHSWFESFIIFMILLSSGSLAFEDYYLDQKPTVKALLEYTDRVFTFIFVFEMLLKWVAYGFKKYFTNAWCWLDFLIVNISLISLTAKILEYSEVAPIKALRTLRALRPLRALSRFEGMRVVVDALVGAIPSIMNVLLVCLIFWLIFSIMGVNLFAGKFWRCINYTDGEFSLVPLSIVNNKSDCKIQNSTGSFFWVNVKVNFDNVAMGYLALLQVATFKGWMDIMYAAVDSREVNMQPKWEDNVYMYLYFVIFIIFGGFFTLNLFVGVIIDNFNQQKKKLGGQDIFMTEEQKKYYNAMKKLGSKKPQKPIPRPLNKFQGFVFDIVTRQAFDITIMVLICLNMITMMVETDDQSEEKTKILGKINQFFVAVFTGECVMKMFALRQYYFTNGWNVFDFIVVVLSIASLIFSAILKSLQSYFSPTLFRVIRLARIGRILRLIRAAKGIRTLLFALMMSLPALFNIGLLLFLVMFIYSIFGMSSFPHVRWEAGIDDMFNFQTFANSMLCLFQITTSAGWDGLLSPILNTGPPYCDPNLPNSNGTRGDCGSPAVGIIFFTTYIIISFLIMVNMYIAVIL

This assay addresses human Nav 1.8 (Homo sapiens, UniProt Q9Y5Y9). The experiment in a line: E-VIPR assay detecting and measuring Nav inhibition properties. Type of assay: cell-based. Conditions: HEK cells expressing a truncated form of human Nav 1.8; compound numbers without "*" (not marked as run in the presence of human serum); read-out: measured IC50 value in the E-VIPR Assay. The method in brief:
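Nav inhibition was read by E-VIPR: cells were electrically stimulated while coumarin/oxonol FRET emissions were recorded. Cells were HEK expressing a truncated human Nav 1.8 and co-transduced with KIR2.1, and were assayed in 25% final human serum.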
`C[C@H]1[C@@H](c2ccc(F)c(F)c2OCC(CO)CO)[C@H](C(=O)Nc2ccnc(C(N)=O)c2)O[C@@]1(C)C(F)(F)F` [Compound 91, 4-((2R,3S,4S,5R)-3-(3,4-difluoro-2-(3-hydroxy-2-(hydroxymethyl)propoxy)phenyl)-4,5-dimethyl-5-(trifluoromethyl)tetrahydrofuran-2-carboxamido)picolinamide]: the IC50 was in the range of 100 to 1000 nM.

Take `C[C@H]1[C@@H](c2ccc(F)c(F)c2OCCN[C@H]2CCOC2)[C@H](C(=O)Nc2ccnc(C(N)=O)c2)O[C@@]1(C)C(F)(F)F` [Compound 117, 4-((2R,3S,4S,5R)-3-(3,4-difluoro-2-(2-(((S)-tetrahydrofuran-3-yl)amino)ethoxy)phenyl)-4,5-dimethyl-5-(trifluoromethyl)tetrahydrofuran-2-carboxamido)picolinamide]: the half-inhibitory concentration (IC50) lay in the range of 10 to 100 nM.

In the case of `C[C@H](CO)COc1c([C@H]2[C@H](C(=O)Nc3ccnc(C(N)=O)c3)O[C@@](C)(C(F)(F)F)[C@H]2C)ccc(F)c1F` [Compound 82, 4-((2R,3S,4S,5R)-3-(3,4-difluoro-2-((R)-3-hydroxy-2-methylpropoxy)phenyl)-4,5-dimethyl-5-(trifluoromethyl)tetrahydrofuran-2-carboxamido)picolinamide], the IC50 is < 10 nM.

As for `C[C@H]1[C@@H](c2ccc(F)c(F)c2OC[C@H]2CC[C@H]2O)[C@H](C(=O)Nc2ccnc(C(N)=O)c2)O[C@@]1(C)C(F)(F)F` (relative stereo) [Compound 99, rel-4-((2R*,3S*,4S*,5R*)-3-(3,4-difluoro-2-(((1R,2R)-2-hydroxycyclobutyl)methoxy)phenyl)-4,5-dimethyl-5-(trifluoromethyl)tetrahydrofuran-2-carboxamido)picolinamide], the IC50 fell in the range of 10 to 100 nM.

For the compound `C[C@H]1[C@@H](c2ccc(F)c(F)c2OCc2cnn(C)c2)[C@H](C(=O)Nc2ccnc(C(N)=O)c2)O[C@@]1(C)C(F)(F)F` [Compound 73, 4-((2R,3S,4S,5R)-3-(3,4-difluoro-2-((1-methyl-1H-pyrazol-4-yl)methoxy)phenyl)-4,5-dimethyl-5-(trifluoromethyl)tetrahydrofuran-2-carboxamido)picolinamide], the IC50 was < 10 nM.

For `C[C@H]1[C@@H](c2ccc(F)c(F)c2OC2CS(=O)(=O)C2)[C@H](C(=O)Nc2ccnc(C(N)=O)c2)O[C@@]1(C)C(F)(F)F` [Compound 171, 4-((2R,3S,4S,5R)-3-(2-((1,1-dioxidothietan-3-yl)oxy)-3,4-difluorophenyl)-4,5-dimethyl-5-(trifluoromethyl)tetrahydrofuran-2-carboxamido)picolinamide], the IC50 was 100 to 1000 nM.

Turning to `C[C@H]1[C@@H](c2ccc(F)c(F)c2OCC2(O)CC2)[C@H](C(=O)Nc2ccnc(C(N)=O)c2)O[C@@]1(C)C(F)(F)F` [Compound 159, 4-((2R,3S,4S,5R)-3-(3,4-difluoro-2-((1-hydroxycyclopropyl)methoxy)phenyl)-4,5-dimethyl-5-(trifluoromethyl)tetrahydrofuran-2-carboxamido)picolinamide], the IC50 was < 10 nM.

Consider `COc1c([C@H]2[C@H](C(=O)Nc3ccnc(C(=O)N4CC[C@H](O)C4)c3)O[C@@](C)(C(F)(F)F)[C@H]2C)ccc(F)c1F` [Compound 219, (2R,3S,4S,5R)-3-(3,4-difluoro-2-methoxyphenyl)-N-(2-((S)-3-hydroxypyrrolidine-1-carbonyl)pyridin-4-yl)-4,5-dimethyl-5-(trifluoromethyl)tetrahydrofuran-2-carboxamide], for which the IC50 was < 10 nM.

For the compound `COc1c([C@H]2[C@H](C(=O)Nc3ccnc(C(=O)N4C[C@H]5CCNC[C@H]54)c3)O[C@@](C)(C(F)(F)F)[C@H]2C)ccc(F)c1F` [Compound 227, (2R,3S,4S,5R)-N-(2-((1S,6R)-3,8-diazabicyclo[4.2.0]octane-8-carbonyl)pyridin-4-yl)-3-(3,4-difluoro-2-methoxyphenyl)-4,5-dimethyl-5-(trifluoromethyl)tetrahydrofuran-2-carboxamide], the IC50 is < 10 nM.

For the compound `COc1c([C@H]2[C@H](C(=O)Nc3ccnc(C(=O)N4C[C@@H](N)[C@@H](F)C4)c3)O[C@@](C)(C(F)(F)F)[C@H]2C)ccc(F)c1F` [Compound 259, (2R,3S,4S,5R)-N-(2-((3R,4S)-3-amino-4-fluoropyrrolidine-1-carbonyl)pyridin-4-yl)-3-(3,4-difluoro-2-methoxyphenyl)-4,5-dimethyl-5-(trifluoromethyl)tetrahydrofuran-2-carboxamide], the half-maximal inhibitory concentration (IC50) was < 10 nM.

Regarding `C[C@H]1[C@@H](c2ccc(F)c(F)c2OCCC2(O)CC2)[C@H](C(=O)Nc2ccnc(C(N)=O)c2)O[C@@]1(C)C(F)(F)F` [Compound 156, 4-((2R,3S,4S,5R)-3-(3,4-difluoro-2-(2-(1-hydroxycyclopropyl)ethoxy)phenyl)-4,5-dimethyl-5-(trifluoromethyl)tetrahydrofuran-2-carboxamido)picolinamide], the IC50 is < 10 nM.

Turning to `CC(=O)COc1c([C@H]2[C@H](C(=O)Nc3ccnc(C(N)=O)c3)O[C@@](C)(C(F)(F)F)[C@H]2C)ccc(F)c1F` [Compound 79, 4-((2R,3S,4S,5R)-3-(3,4-difluoro-2-(2-oxopropoxy)phenyl)-4,5-dimethyl-5-(trifluoromethyl)tetrahydrofuran-2-carboxamido)picolinamide], the IC50 fell in the range of 10 to 100 nM.

With `COc1c([C@H]2[C@H](C(=O)Nc3ccnc(C(N)=O)c3)O[C@@](C)(C(F)(F)F)[C@H]2C)cc(OCc2ccccc2)c(F)c1F` [Compound 177, 4-((2R,3S,4S,5R)-3-(5-(benzyloxy)-3,4-difluoro-2-methoxyphenyl)-4,5-dimethyl-5-(trifluoromethyl)tetrahydrofuran-2-carboxamido) picolinamide], the IC50 is < 10 nM.

In the case of `COc1c([C@H]2[C@H](C(=O)Nc3ccnc(C(=O)N4C5CC4CN(C)C5)c3)O[C@@](C)(C(F)(F)F)[C@H]2C)ccc(F)c1F` [Compound 276, (2R,3S,4S,5R)-3-(3,4-difluoro-2-methoxyphenyl)-4,5-dimethyl-N-(2-(3-methyl-3,6-diazabicyclo[3.1.1]heptane-6-carbonyl)pyridin-4-yl)-5-(trifluoromethyl)tetrahydrofuran-2-carboxamide], the IC50 lay within 10 to 100 nM.

In the case of `COc1c([C@H]2[C@H](C(=O)Nc3ccnc(C(=O)N4C[C@@H](F)[C@H](N(C)C)C4)c3)O[C@@](C)(C(F)(F)F)[C@H]2C)ccc(F)c1F` [Compound 299, (2R,3S,4S,5R)-3-(3,4-difluoro-2-methoxyphenyl)-N-(2-((3R,4R)-3-(dimethylamino)-4-fluoropyrrolidine-1-carbonyl)pyridin-4-yl)-4,5-dimethyl-5-(trifluoromethyl)tetrahydrofuran-2-carboxamide], the IC50 was 10 to 100 nM.

For the compound `C[C@@H]1[C@H](c2ccc(F)c3c2CCC3(F)F)[C@@H](C(=O)Nc2ccnc(C(N)=O)c2)O[C@]1(C)C(F)(F)F` (single isomer, unassigned) [Compound 148], the IC50 was ≥ 1000 nM.

Consider `COc1c(Cl)cc([C@H]2[C@H](C(=O)Nc3ccnc(C(N)=O)c3)O[C@@](C)(C(F)(F)F)[C@H]2C)c(OC)c1F` [Compound 154, 4-((2R,3S,4S,5R)-3-(5-chloro-3-fluoro-2,4-dimethoxyphenyl)-4,5-dimethyl-5-(trifluoromethyl)tetrahydrofuran-2-carboxamido) picolinamide], for which the half-maximal inhibitory concentration (IC50) is < 10 nM.

With `CNC1CCN(C(=O)c2cc(NC(=O)[C@@H]3O[C@@](C)(C(F)(F)F)[C@@H](C)[C@H]3c3ccc(F)c(F)c3OC)ccn2)C1` (single isomer, unassigned) [Compound 222, rel-(2R*,3S*,4S*,5R*)-3-(3,4-difluoro-2-methoxyphenyl)-4,5-dimethyl-N-(2-(3-(methylamino)pyrrolidine-1-carbonyl)pyridin-4-yl)-5-(trifluoromethyl)tetrahydrofuran-2-carboxamide], the IC50 is < 10 nM.

Turning to `COCc1c(F)ccc([C@@H]2[C@@H](C(=O)Nc3ccnc(C(N)=O)c3)O[C@](C)(C(F)(F)F)[C@@H]2C)c1OC` (single isomer, unassigned) [Compound 139], the IC50 is ≥ 1000 nM.

Take `CC[C@H](CO)COc1c([C@H]2[C@H](C(=O)Nc3ccnc(C(N)=O)c3)O[C@@](C)(C(F)(F)F)[C@H]2C)ccc(F)c1F` (single isomer, unassigned) [Compound 93, rel-4-((2R*,3S*,4S*,5R*)-3-(3,4-difluoro-2-(2-(hydroxymethyl)butoxy)phenyl)-4,5-dimethyl-5-(trifluoromethyl)tetrahydrofuran-2-carboxamido)picolinamide]: the half-maximal inhibitory concentration (IC50) was < 10 nM.

For `COc1c([C@H]2[C@H](C(=O)Nc3ccnc(C(=O)NC4CNC4)c3)O[C@@](C)(C(F)(F)F)[C@H]2C)ccc(F)c1F` [Compound 236, N-(azetidin-3-yl)-4-((2R,3S,4S,5R)-3-(3,4-difluoro-2-methoxyphenyl)-4,5-dimethyl-5-(trifluoromethyl)tetrahydrofuran-2-carboxamido)picolinamide], the IC50 lay in the range of 10 to 100 nM.

Regarding `CNC(=O)COc1c([C@H]2[C@H](C(=O)Nc3ccnc(C(N)=O)c3)O[C@@](C)(C(F)(F)F)[C@H]2C)ccc(F)c1F` [Compound 96, 4-((2R,3S,4S,5R)-3-(3,4-difluoro-2-(2-(methylamino)-2-oxoethoxy)phenyl)-4,5-dimethyl-5-(trifluoromethyl)tetrahydrofuran-2-carboxamido)picolinamide], the concentration for half-maximal inhibition (IC50) was in the range of 10 to 100 nM.

Turning to `C[C@H]1[C@@H](c2ccc(F)c(F)c2OCCN2CCC23COC3)[C@H](C(=O)Nc2ccnc(C(N)=O)c2)O[C@@]1(C)C(F)(F)F` [Compound 125, 4-((2R,3S,4S,5R)-3-(2-(2-(6-oxa-1-azaspiro[3.3]heptan-1-yl)ethoxy)-3,4-difluorophenyl)-4,5-dimethyl-5-(trifluoromethyl)tetrahydrofuran-2-carboxamido)picolinamide], the IC50 was < 10 nM.
